Experimental data published in patent publication US10940188B2, “Compounds and methods for treatment and prevention of Flavivirus infection” (priority 2016, dated 2021).
Structures can show the parent of a compound that is named as a salt. Where two headings read alike, the source gives them in different places. Numbered stars: 1 amine (or outer) side, 2 acyl side, 3 side chain; on linkers, the order of the positions; unused ones are H or OH. Bridge positions count the residues as written; N and C are the ends. Square brackets hold non-standard residues; d marks the D form. Peptide text beside a SMILES is read from it. I, II: the chains in the order shown. Actinocin(9to1) = Cc1c2oc3c(C)ccc(C(=O)[*:1])c3nc-2c(C(=O)[*:2])c(N)c1=O; NMeV = CN[C@H](C(=O)O)C(C)C; Sar = CNCC(=O)O

Columns and labels:
ZIKV MR766 NS1 = assay: microbe, parasite or virus in culture; type: cell-based, Zika virus; conditions: read-out: NS1-IC50
Protocol: A one-step NS1 TR-FRET (Time-resolved fluorescence resonance energy transfer) assay for a screen of anti-ZIKV compounds was carried out. Human embryonic kidney cell line HEK293 cells were seeded into 384-well plates and infected with ZIKV MR766 at a MOI of 0.5 for 2 days. The FRET assay was performed with two clones of anti-NS1 antibody (ab) differentially labelled with donor and acceptor fluorophores.

HEK293 cells = assay: Toxicity IC50 (cell-killing activity) of the NS1 TR-FRET screen; type: cell-based, human
[1] = HEK293 cells, ZIKV MR766, MOI 0.5, 2 days, virus-inhibiting activity
[2] = Homo sapiens, HEK293, cell-killing activity, read-out: Tox IC50
[3] = cell-killing activity, read-out: Tox IC50

SMILES | IC50 (ZIKV MR766 NS1; Zika virus, HEK293, 48 h) | Tox IC50 (HEK293 cells; cell-killing activity) | IC50 (ZIKV MR766 NS1; [1]) | other results
CC[C@@]1(O)C(=O)OCc2c1cc1n(c2=O)Cc2cc3c(CN(C)C)c(O)ccc3nc2-1 [Topotecan hydrochloride] | 51.4 nM | No | – | –
Nc1ccc(-c2ccc3ncc4ccc(=O)n(-c5cccc(C(F)(F)F)c5)c4c3c2)cn1 [Torin-2] | – | No | 724 nM | –
CC(C)C[C@H](NC(=O)CNC(=O)c1cc(Cl)ccc1Cl)B(O)O [MLN-2238] | 234 nM | – | – | IC50 (HEK293 cells; [2]): 2130 nM
OCCCNc1cc(-c2ccnc(Nc3cccc(Cl)c3)n2)ccn1 [CGP-60474] | – | – | 794 nM | IC50 (HEK293 cells; [3]): 60000 nM
CCc1c2c(nc3ccc(O)cc13)-c1cc3c(c(=O)n1C2)COC(=O)[C@]3(O)CC [SN-38] | – | No | 11.3 nM | –
C[C@]1(CO)CN(c2cc(C(=O)Nc3ccc4c(c3)-c3c(c(C(N)=O)nn3-c3ccc(F)cc3)CC4)c(Cl)cn2)C[C@@]1(C)CO [PF-184] | – | No | 388 nM | –
C/C=C(\C)C(=O)N[C@@H](c1ccccc1)[C@@H](O)C(=O)O[C@H]1C[C@@]2(O)[C@@H](OC(=O)c3ccccc3)[C@@H]3[C@]4(OC(C)=O)CO[C@@H]4C[C@H](O)[C@@]3(C)C(=O)[C@H](OC(C)=O)C(=C1C)C2(C)C [Cephalomannine] | 221 nM | No | – | –
CC(C)[C@]12O[C@H]1[C@@H]1O[C@]13[C@]1(O[C@H]1C[C@H]1C4=C(CC[C@@]13C)C(=O)OC4)[C@@H]2O [Triptolide] | 465 nM | No | – | –
Cc1c2oc3c(C)ccc(C(=O)N[C@@H]4C(=O)N[C@H](C(C)C)C(=O)N5CCC[C@H]5C(=O)N(C)CC(=O)N(C)[C@@H](C(C)C)C(=O)O[C@@H]4C)c3nc-2c(C(=O)N[C@@H]2C(=O)N[C@H](C(C)C)C(=O)N3CCC[C@H]3C(=O)N(C)CC(=O)N(C)[C@@H](C(C)C)C(=O)O[C@@H]2C)c(N)c1=O [Actinomycin D] (I: T[dV]P[Sar][NMeV] / II: T[dV]P[Sar][NMeV]; ester I:1-I:C, II:1-II:C; linker I:N-II:N via Actinocin(9to1)) | – | No | 352 nM | –
CCC[C@H](Nc1nc(-c2ccc(NC(=O)NCC)c(OC)c2)ncc1C)c1cccnc1 [Lexibulin hydrochloride] | 171 nM | No | – | –
CC[C@@]1(O)C(=O)OCc2c1cc1n(c2=O)Cc2cc3ccccc3nc2-1 [(S)-(+)-Camptothecin] | – | No | 26.4 nM | –
Cn1c2ccccc2c2c3c(c4c5ccccc5n(CCC#N)c4c21)CNC3=O [Go-6976] | 944 nM | – | – | IC50 (HEK293 cells; [2]): 20200 nM
CC[C@]1(O)C[C@@H]2CN(CCc3c([nH]c4ccccc34)[C@@](C(=O)OC)(c3cc4c(cc3OC)N(C)[C@H]3[C@@](O)(C(N)=O)[C@H](O)[C@]5(CC)C=CCN6CC[C@]43[C@@H]65)C2)C1 [Vindesine sulfate salt] | 664 nM | No | – | –
CC[C@]1(O)C[C@H]2CN(CCc3c([nH]c4ccccc34)[C@@](C(=O)OC)(c3cc4c(cc3OC)N(C=O)[C@H]3[C@@](O)(C(=O)OC)[C@H](OC(C)=O)[C@]5(CC)C=CCN6CC[C@]43[C@@H]65)C2)C1 [Vincristine sulfate] | 156 nM | No | – | –
C[C@H]1CCC/C=C/[C@@H]2C[C@H](O)C[C@H]2[C@H](O)/C=C/C(=O)O1 [Cyanein] | – | No | 432 nM | –
CS[C@H]1SC[C@H]2C(=O)N(C)[C@@H](C(C)C)C(=O)OC[C@@H](NC(=O)c3cnc4ccccc4n3)C(=O)N[C@@H](C)C(=O)N(C)[C@@H]1C(=O)N(C)[C@@H](C(C)C)C(=O)OC[C@@H](NC(=O)c1cnc3ccccc3n1)C(=O)N[C@@H](C)C(=O)N2C [Echinomycin] | 17.4 nM | No | – | –
CC(C)c1nn(-c2c(Cl)cccc2Cl)c2nc(Cc3ccc(OCCO)cc3)[nH]c(=O)c12 [RGB-286147] | – | No | 268 nM | –
Cn1cc(-c2[nH]c3cc(NC(=O)[C@H](N)C4CCCCC4)cc4c3c2C=NNC4=O)cn1 [PF-477736] | – | No | 489 nM | –

SMILES | IC50 (ZIKV MR766 NS1; Zika virus, HEK293, 48 h) | Tox IC50 (HEK293 cells; cell-killing activity) | IC50 (ZIKV MR766 NS1; [1]) | other results
CC[C@H](CC#N)OC(=O)N[C@@H](C)c1cccc(NC(=O)Nc2ccc(-c3cnco3)c(OC)c2)c1 [AVN-944] | 136 nM | – | – | IC50 (HEK293 cells; Homo sapiens, HEK293, read-out: Tox IC50): 20000 nM
Cc1ccc(C(=O)N(CCCN)[C@@H](c2nc3cc(Cl)ccc3c(=O)n2Cc2ccccc2)C(C)C)cc1 [Ispinesib] | 67.4 nM | – | – | IC50 (HEK293 cells; [2]): 37500 nM
C[C@H]1O[C@@H](O[C@H]2[C@@H](O)C[C@H](O[C@H]3[C@@H](O)C[C@H](O[C@H]4CC[C@@]5(C)[C@H](CC[C@@H]6[C@@H]5C[C@@H](O)[C@]5(C)[C@@H](C7=CC(=O)OC7)CC[C@]65O)C4)O[C@@H]3C)O[C@@H]2C)C[C@H](O)[C@@H]1O [Digoxin] | 152 nM | – | – | IC50 (HEK293 cells; [2]): 60000 nM
COc1c(C)c2c(c(O)c1C/C=C(\C)CCC(=O)O)C(=O)OC2 [Mycophenolic acid] | 539 nM | No | – | –
CC(C)C[C@H](NC(=O)[C@@H](NC(=O)c1cccc(-c2ccccc2)n1)[C@@H](C)O)B(O)O [Delanzomib] | 58.5 nM | – | – | IC50 (HEK293 cells; [2]): 300 nM
CC(=O)[C@]1(O)Cc2c(O)c3c(c(O)c2[C@@H](O[C@H]2C[C@H](N)[C@H](O)[C@H](C)O2)C1)C(=O)c1ccccc1C3=O [Idarubicin hydrochloride] | 168 nM | No | – | –
C/C=C(/C)C(=O)O[C@H]1C(C)=C2[C@H]([C@@H]1OC(=O)CCCCCCC)[C@@](C)(OC(C)=O)C[C@H](OC(=O)CCC)[C@@]1(O)[C@H]2OC(=O)[C@@]1(C)O [Thapsigargin] | 171 nM | – | – | IC50 (HEK293 cells; [2]): 40000 nM
NCC(=O)Nc1ccc(-n2nc(C(F)(F)F)cc2-c2ccc3c(ccc4ccccc43)c2)cc1 [OSU-03012] | 992 nM | – | – | IC50 (HEK293 cells; [2]): 10000 nM
Cc1ccc([N+](=O)[O-])cc1S(=O)(=O)N(C)/N=C/c1cnc2ccc(Br)cn12 [PIK-75] | – | No | 616 nM | –
COc1c(C)c2c(c(O)c1C/C=C(\C)CCC(=O)OCCN1CCOCC1)C(=O)OC2 [Mycophenolate mofetil] | 529 nM | No | – | –
COC(=O)[C@]12CCC(C)(C)C[C@H]1[C@H]1C(=O)C=C3[C@@]4(C)C=C(C#N)C(=O)C(C)(C)[C@@H]4CC[C@@]3(C)[C@]1(C)CC2 [Bardoxolone methyl] | 282 nM | – | – | IC50 (HEK293 cells; [2]): 2680 nM
NC(=O)Nc1cc(-c2cccc(F)c2)sc1C(=O)N[C@H]1CCCNC1 [AZD-7762] | 366 nM | No | – | –
CCC1=C[C@@H]2CN(C1)Cc1c([nH]c3ccccc13)[C@@](C(=O)OC)(c1cc3c(cc1OC)N(C)[C@H]1[C@@](O)(C(=O)OC)[C@H](OC(C)=O)[C@]4(CC)C=CCN5CC[C@]31[C@@H]54)C2 [Vinorelbine tartrate] | 270 nM | No | – | –
O=C(Cc1ccc(-c2ccc(OCCN3CCOCC3)cc2)cn1)NCc1ccccc1 [KX-01] | – | – | 481 nM | IC50 (HEK293 cells; [3]): 19300 nM
C[C@@H]1C[C@@H]([C@H](O)CC2CC(=O)NC(=O)C2)C(=O)[C@@H](C)C1 [Cycloheximide] | 287 nM | No | – | –
CC[C@@H]1C(=O)N(C)c2cnc(Nc3ccc(C(=O)N[C@H]4CC[C@H](N5CCN(CC6CC6)CC5)CC4)cc3OC)nc2N1C(C)C [Volasertib] | 64.8 nM | No | – | –
O=c1[nH]c(=O)n([C@H]2C[C@H](O)[C@@H](CO)O2)cc1F [Floxuridine] | 918 nM | – | – | IC50 (HEK293 cells; [2]): 60000 nM
